Values joined by “and” are separate entries in the source; they are usually repeats but may differ in a detail not shown here. Equal values may be shown once.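 Compound exposure: 48 hours, 5 concentrations, 96-well plates. Abbreviation: GI50, concentration required for 50% inhibition of growth. The concentration for full growth arrest is given as TGI.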 Bounds are passed on as bounds.

From PubChem BioAssay (NCI) come the findings set out here.

Test in all cases: DTP human tumour cell line panel, 48 h
Assay [1] relates to MDA-MB-435.
In assay [2] the test system is PC-3 prostate.
In assay [3] the test system is BT-549 breast.
The subject of assay [4] is DU-145 prostate.
Assay [5] concerns MDA-N.

A word on the TGI: it is the concentration at which net growth stops. On to `COc1c(O)c(OC)c2oc(-c3ccc(O)cc3)c(OC)c(=O)c2c1O`, for which the TGI in assay [1], in assay [2], in assay [3], in assay [4] and in assay [5] was > 100 µM throughout.

One may read the GI50 as the concentration giving 50% growth inhibition. As to `COc1ccc(F)c(F)c1C(=O)c1cnc(NC2CCN(S(C)(=O)=O)CC2)nc1N`, the GI50 in assay [1] was 0.419 µM and 0.309 µM; in assay [2], 0.385 µM and 0.411 µM; in assay [3], 1.52 µM and 1.02 µM; in assay [4], 1.7 µM and 0.623 µM. The concentration for total growth inhibition (TGI) in assay [1] is 3.72 µM and > 4.89 µM; in assay [2], 5.44 µM and 5.92 µM; in assay [3], 5.86 µM and 5.52 µM; in assay [4], > 71.2 µM.

Consider `CC(C)Oc1ccc(C(=O)Cn2ccnc2)cc1-n1c(CN2CCN(C(=O)COc3ccc(Cl)cc3)CC2)nc2ccccc2c1=O`, for which the GI50 was 15.6 µM in assay [1], 9.44 µM in assay [2], 13.5 µM in assay [3] and 9.59 µM in assay [4]. Moreover, the TGI in assay [1] is 33.6 µM; in assay [2] it was 37.2 µM; in assay [3], 30.9 µM; in assay [4], > 100 µM.

Regarding `OCc1ccc(N2CCOCC2)cc1Cl`, the GI50 in assay [1], in assay [2], in assay [3] and in assay [4] was > 100 µM each time. The concentration for total growth inhibition (TGI) in assay [1], in assay [2], in assay [3] and in assay [4] was > 100 µM each time.

Turning to `c1cnn2ncc(-c3ccnc(Nc4ccc5c(c4)OCCO5)n3)c2c1`, the GI50 in assay [1] is 0.0813 µM; in assay [2] it was 0.0955 µM; in assay [3], 0.0588 µM; in assay [4] it was 0.0844 µM. In addition, the TGI in assay [1] is 0.516 µM; in assay [2] it was > 25 µM; in assay [3], 0.2 µM; in assay [4], 1.45 µM.

Regarding `CC1OC(c2ccc3c(c2O)C(=O)C2=C(C3=O)C3(O)C(=O)CC(C)(O)CC3(O)C=C2)CC(O)C1O` (centres undefined), the TGI was > 42.5 µM in assay [1]; 65.7 µM in assay [2]; 32.8 µM in assay [3]; 29.1 µM in assay [4]; 11.7 µM in assay [5].

With `COc1ccc(C2=C(N3CCc4ccccc43)C(=O)NC2=O)cc1`, the GI50 in assay [1] was > 25 µM; in assay [2], > 20.2 µM; in assay [3], 24.2 µM; in assay [4], > 25 µM. In addition, the total growth inhibition concentration (TGI) in assay [1], in assay [2], in assay [3] and in assay [4] was > 25 µM each time.

For the molecule `O=C(NCCN1CCNCC1)c1ccc(Nc2nc3ccccc3c3occc23)cc1`, the GI50 in assay [1] was 3.1 µM; in assay [2], 11.1 µM; in assay [3], 2.72 µM; in assay [4], 3.44 µM. In addition, the total growth inhibition concentration (TGI) in assay [1] worked out at 8.51 µM; in assay [2] it was 29.8 µM; in assay [3], 18.2 µM; in assay [4] it was 12.5 µM.

For the molecule `Nc1cc(-c2ccc(Cl)cc2)nn1-c1nnc(/C=C/c2ccco2)c(=O)[nH]1`, the GI50 in assay [1] was 5.9 µM; in assay [2], 8.95 µM; in assay [3], 5.62 µM; in assay [4] it was 4.5 µM. Also, the concentration for total growth inhibition (TGI) in assay [1] is > 100 µM; in assay [2] it was > 75 µM; in assay [3] it was 55.5 µM; in assay [4], 28.2 µM.

Consider `O=C1/C(=C/c2cccc([N+](=O)[O-])c2)Sc2scc(-c3ccc([N+](=O)[O-])cc3)[n+]21`, for which the TGI in assay [1] is 37.5 µM; in assay [2], > 100 µM; in assay [3] it was 28.8 µM; in assay [4], > 100 µM; in assay [5] it was > 100 µM.

For `CN1c2ccccc2SC2C(c3ccccc3)=NOC21` (centres undefined), the total growth inhibition concentration (TGI) is 71 µM in assay [2], 68.4 µM in assay [3], > 100 µM in assay [4] and 52.8 µM in assay [5].

Take `c1ccc(-c2nc(N3CCCNCC3)c3nc(-c4ccccc4)oc3n2)cc1`: in assay [1], the GI50 was 1.64 µM and the TGI came to 3.08 µM. In assay [4], the GI50 was 1.8 µM and the concentration for total growth inhibition (TGI) amounted to 3.26 µM.

As for `CCOC(=O)c1c(SCCN2CCOCC2)n(-c2ccccc2)c(=S)n(-c2ccccc2)c1=O`, the concentration for total growth inhibition (TGI) in assay [1], in assay [3] and in assay [5] was > 100 µM each time.

As for `O=C1/C(=C/c2ccc([N+](=O)[O-])cc2)COc2ccc(O)cc21`, the GI50 was 5.21 µM in assay [1], 2.58 µM in assay [2], 18.5 µM in assay [3] and 13.5 µM in assay [4]. The concentration for total growth inhibition (TGI) in assay [1] is 29.7 µM; in assay [2], 7.27 µM; in assay [3] it was 50.4 µM; in assay [4] it was > 100 µM.

As to `O=C1c2ccccc2-c2c1c1ccccc1c(=O)n2CCNCCn1c2c(c3ccccc3c1=O)C(=O)c1ccccc1-2`, the GI50 in assay [1], in assay [3] and in assay [4] was > 25 µM in each case. For the same molecule, the total growth inhibition concentration (TGI) in assay [1], in assay [3] and in assay [4] was > 25 µM throughout.

For the molecule `COc1cc2nc(-c3ccc(C(F)(F)F)cc3)cc(OCCCN3CCCC3)c2cc1OC`, the GI50 in assay [1] is 1.15 µM; in assay [2] it was 1.14 µM; in assay [3], 0.917 µM; in assay [4], 0.992 µM. In addition, the TGI in assay [1] is 15.1 µM; in assay [2] it was 9.79 µM; in assay [3] it was 4.95 µM; in assay [4] it was > 46.6 µM.

Consider `O=C1c2ccccc2-c2c1c1c(NCCCO)nc3ccccc3c1n2Cc1ccccc1`, for which the values for the GI50 in assay [1], in assay [3] and in assay [4] were 36 µM, 21.1 µM and 16.3 µM, respectively. The concentration for total growth inhibition (TGI) was > 100 µM in assay [1], 43.7 µM in assay [3] and 34.1 µM in assay [4].

Consider `COc1ccc(-c2cnoc2-c2cc(OC)c3c(c2)OCCO3)cc1`, for which the values for the GI50 in assay [2], in assay [3] and in assay [4] were 0.0377 µM, 0.073 µM and 0.0456 µM, respectively. Besides, the concentration for total growth inhibition (TGI) was > 100 µM in assay [2], 27.8 µM in assay [3] and > 46.9 µM in assay [4].

In the case of `CCNCCNc1cc(-c2ccc(C#N)cc2)c(C#N)c2nc3ccccc3n12`, the GI50 in assay [1] is 2.29 µM; in assay [2], 7.41 µM; in assay [3] it was 1.9 µM; in assay [4], 4.13 µM. Also, the TGI came to 6.28 µM in assay [1], 20.7 µM in assay [2], 4.91 µM in assay [3] and 15.3 µM in assay [4].
